According to patent US20100298141A1, “SUBSTITUTED PYRIDINE N-OXIDE HERBICIDES” (E. I. DU PONT DE NEMOURS AND COMPANY, priority 2007, published 2010):

What was measured:
downy brome = assay: Test C pre-/postemergence test; assay type: in vivo, Bromus tectorum
Summary of the method: (§1)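 Test chemicals were formulated with surfactant in a non-phytotoxic solvent and sprayed both on freshly planted seeds (preemergence) and on 1- to 4-leaf plants of 2–18 cm (postemergence). Flooded-paddy pots received compound directly into 3 cm of standing water, maintained for the test.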

[1] = test system: common (oilseed) sunflower; assay: Test C pre-/postemergence test; assay type: in vivo, Helianthus annuus
Summary of the method: as §1

giant foxtail [2] = assay: Test C pre-/postemergence test; assay type: in vivo, Setaria faberii
Summary of the method: as §1

redroot pigweed = assay: Test A pre-/postemergence greenhouse test; assay type: in vivo, Amaranthus retroflexus; details: for Plant response rating, Pigweed: 0 to 100 scale where 0 is no effect and 100 is complete control; for Pigweed plant response rating: 0 to 100 scale
Summary of the method: (§2)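 Pots of loam–sand soil sown with the test species are sprayed preemergence on the soil surface; emerged seedlings (1–2 leaves, 2–10 cm) are sprayed postemergence at the same time. The vehicle is a non-phytotoxic solvent mixture with surfactant. Injury is scored visually after ~10 d in greenhouse.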

wild oat = assay: Test C pre-/postemergence test; assay type: in vivo, Avena fatua
Summary of the method: as §1

velvetleaf = assay: Test C pre-/postemergence test; assay type: in vivo, Abutilon theophrasti
Summary of the method: as §1

eastern black nightshade = assay: Test C pre-/postemergence test; assay type: in vivo, Solanum ptycanthum
Summary of the method: as §1

morningglory = assay: Test A pre-/postemergence greenhouse test; assay type: in vivo, Ipomoea spp.; details: for Plant response rating, Morningglory: 0 to 100 scale where 0 is no effect and 100 is complete control; for Morningglory plant response rating: 0 to 100 scale
Summary of the method: as §2

lambsquarters = assay: Test C pre-/postemergence test; assay type: in vivo, Chenopodium album
Summary of the method: as §1

giant foxtail [3] = assay: Test A pre-/postemergence greenhouse test; assay type: in vivo, Setaria faberi; details: for Plant response rating, Foxtail, Giant: 0 to 100 scale where 0 is no effect and 100 is complete control; for Foxtail, Giant plant response rating: 0 to 100 scale
Summary of the method: as §2

catchweed bedstraw = assay: Test C pre-/postemergence test; assay type: in vivo, Galium aparine
Summary of the method: as §1

woolly cupgrass = assay: Test C pre-/postemergence test; assay type: in vivo, Eriochloa villosa
Summary of the method: as §1

wheat [4] = assay: Test C pre-/postemergence test; assay type: in vivo, Triticum aestivum
Summary of the method: as §1

wheat [5] = assay: Test A pre-/postemergence greenhouse test; assay type: in vivo, Triticum aestivum; details: for Plant response rating, Wheat: 0 to 100 scale where 0 is no effect and 100 is complete control; for Wheat plant response rating: 0 to 100 scale
Summary of the method: as §2

Surinam grass = assay: Test C pre-/postemergence test; assay type: in vivo, Brachiaria decumbens
Summary of the method: as §1

cocklebur = assay: Test C pre-/postemergence test; assay type: in vivo, Xanthium strumarium
Summary of the method: as §1

kochia = assay: Test C pre-/postemergence test; assay type: in vivo, Kochia scoparia
Summary of the method: as §1

blackgrass = assay: Test C pre-/postemergence test; assay type: in vivo, Alopecurus myosuroides
Summary of the method: as §1

common ragweed = assay: Test C pre-/postemergence test; assay type: in vivo, Ambrosia elation
Summary of the method: as §1

[6] = 62 g ai/ha, Preemergence, scale 0 to 100
[7] = 125 g ai/ha, preemergence, scale 0 (no effect) to 100 (complete control)
[8] = Postemergence, 62 g ai/ha, scale 0 to 100, 0 no effect, 100 complete control
[9] = Postemergence, 125 g ai/ha, scale 0 to 100, 0 no effect, 100 complete control
[10] = Postemergence, 250 g ai/ha, scale 0 to 100, 0 no effect, 100 complete control
[11] = Preemergence, 31 g ai/ha, scale 0 to 100 (0 no effect, 100 complete control)
[12] = preemergence, 250 g ai/ha, scale 0 (no effect) to 100 (complete control)
[13] = Postemergence, 500 g ai/ha, 0 is no effect, 100 is complete control
[14] = Preemergence, 125 g ai/ha, 0 no effect, 100 complete control

In the case of `[O-][n+]1cc(Cl)ccc1[S+]([O-])Cc1c(C(F)(F)F)nn(CC(F)(F)F)c1Cl` (stereo not shown) [Compound 47], the “Bromegrass, Downy plant response rating” value (downy brome; [6]) is reported as 0, the “Bromegrass, Downy plant response rating” value (downy brome; [7]) is reported as 10 and the “Plant response rating (0 to 100), Bromegrass, Downy” value (downy brome; Postemergence, 31 g ai/ha) is reported as 0. The “Plant response rating, Bromegrass, Downy” value (downy brome; [8]) was 0, the “Plant response rating, Bromegrass, Downy” value (downy brome; [9]) was 0 and the “Plant response rating, Bromegrass, Downy” value (downy brome; [10]) was 10. The “Plant response rating, Bromegrass, Downy” value (downy brome; [11]) was 0, the “Bromegrass, Downy plant response rating” value (downy brome; [12]) was 50 and the “Sunflower plant response rating” value [1, 6] was 0. For the same molecule, the “Sunflower plant response rating” value [1, 7] was 0, the “Plant response rating, Sunflower” value [1, 11] was 0 and the “Sunflower plant response rating” value [1, 12] was 0. The “Foxtail, Giant plant response rating” value (giant foxtail [2]; [6]) was 100, the “Foxtail, Giant plant response rating” value (giant foxtail [2]; [7]) was 100 and the “Plant response rating (0 to 100), Foxtail, Giant” value (giant foxtail [2]; Postemergence, 31 g ai/ha) was 0. The “Plant response rating, Foxtail, Giant” value (giant foxtail [2]; [8]) was 0, the “Plant response rating, Foxtail, Giant” value (giant foxtail [2]; [9]) was 0 and the “Plant response rating, Foxtail, Giant” value (giant foxtail [2]; [10]) was 50. The “Plant response rating, Foxtail, Giant” value (giant foxtail [2]; [11]) was 85, the “Foxtail, Giant plant response rating” value (giant foxtail [2]; [12]) was 100 and the “Plant response rating, Pigweed” value (redroot pigweed; Postemergence, 125 g ai/ha) was 60. The “Pigweed plant response rating” value (redroot pigweed; [13]) was 80, the “Pigweed plant response rating” value (redroot pigweed; [14]) was 100 and the “Plant response rating, Pigweed” value (redroot pigweed; Preemergence, 500 g ai/ha) was 100. The “Oat, Wild plant response rating” value (wild oat; [6]) was 10, the “Oat, Wild plant response rating” value (wild oat; [7]) was 90 and the “Plant response rating (0 to 100), Oat, Wild” value (wild oat; Postemergence, 31 g ai/ha) was 0. The “Plant response rating, Oat, Wild” value (wild oat; [8]) was 0, the “Plant response rating, Oat, Wild” value (wild oat; [9]) was 10 and the “Plant response rating, Oat, Wild” value (wild oat; [10]) was 40. For the same molecule, the “Plant response rating, Oat, Wild” value (wild oat; [11]) was 10, the “Oat, Wild plant response rating” value (wild oat; [12]) was 95 and the “Velvetleaf plant response rating” value (velvetleaf; [6]) was 0. The “Velvetleaf plant response rating” value (velvetleaf; [7]) was 70, the “Plant response rating (0 to 100), Velvetleaf” value (velvetleaf; Postemergence, 31 g ai/ha) was 0 and the “Plant response rating (0 to 100), Velvetleaf” value (velvetleaf; Postemergence, 62 g ai/ha) was 0. For the same molecule, the “Plant response rating, Velvetleaf” value (velvetleaf; [9]) was 0, the “Plant response rating, Velvetleaf” value (velvetleaf; [10]) was 20 and the “Plant response rating, Velvetleaf” value (velvetleaf; [11]) was 0. The “Velvetleaf plant response rating” value (velvetleaf; [12]) was 100, the “Nightshade plant response rating” value (eastern black nightshade; [6]) was 85 and the “Nightshade plant response rating” value (eastern black nightshade; [7]) was 90. For the same molecule, the “Plant response rating, Nightshade” value (eastern black nightshade; [11]) was 0, the “Nightshade plant response rating” value (eastern black nightshade; [12]) was 100 and the “Plant response rating, Morningglory” value (morningglory; Postemergence, 125 g ai/ha) was 60. The “Morningglory plant response rating” value (morningglory; [13]) was 90, the “Morningglory plant response rating” value (morningglory; [14]) was 60 and the “Plant response rating, Morningglory” value (morningglory; Preemergence, 500 g ai/ha) was 80. The “Lambsquarters plant response rating” value (lambsquarters; [6]) was 100, the “Lambsquarters plant response rating” value (lambsquarters; [7]) was 100 and the “Plant response rating (0 to 100), Lambsquarters” value (lambsquarters; Postemergence, 31 g ai/ha) was 0. For the same molecule, the “Plant response rating, Lambsquarters” value (lambsquarters; [8]) was 0, the “Plant response rating, Lambsquarters” value (lambsquarters; [9]) was 0 and the “Plant response rating, Lambsquarters” value (lambsquarters; [10]) was 50. The “Plant response rating, Lambsquarters” value (lambsquarters; [11]) was 100, the “Lambsquarters plant response rating” value (lambsquarters; [12]) was 100 and the “Plant response rating, Foxtail, Giant” value (giant foxtail [3]; Postemergence, 125 g ai/ha) was 80. The “Foxtail, Giant plant response rating” value (giant foxtail [3]; [13]) was 90, the “Foxtail, Giant plant response rating” value (giant foxtail [3]; [14]) was 100 and the “Plant response rating, Foxtail, Giant” value (giant foxtail [3]; Preemergence, 500 g ai/ha) was 100. The “Galium plant response rating” value (catchweed bedstraw; [6]) was 85, the “Galium plant response rating” value (catchweed bedstraw; [7]) was 90 and the “Plant response rating, Galium” value (catchweed bedstraw; [11]) was 80. For the same molecule, the “Galium plant response rating” value (catchweed bedstraw; [12]) was 100, the “Cupgrass, Woolly plant response rating” value (woolly cupgrass; [6]) was 100 and the “Cupgrass, Woolly plant response rating” value (woolly cupgrass; [7]) was 100. For the same molecule, the “Plant response rating (0 to 100), Cupgrass, Woolly” value (woolly cupgrass; Postemergence, 31 g ai/ha) was 0, the “Plant response rating, Cupgrass, Woolly” value (woolly cupgrass; [8]) was 0 and the “Plant response rating, Cupgrass, Woolly” value (woolly cupgrass; [9]) was 0. For the same molecule, the “Plant response rating, Cupgrass, Woolly” value (woolly cupgrass; [10]) was 50, the “Plant response rating, Cupgrass, Woolly” value (woolly cupgrass; [11]) was 90 and the “Cupgrass, Woolly plant response rating” value (woolly cupgrass; [12]) was 100. The “Wheat plant response rating” value (wheat [4]; [6]) was 10, the “Wheat plant response rating” value (wheat [4]; [7]) was 60 and the “Plant response rating (0 to 100), Wheat” value (wheat [4]; Postemergence, 31 g ai/ha) was 0. For the same molecule, the “Plant response rating (0 to 100), Wheat” value (wheat [4]; Postemergence, 62 g ai/ha) was 0, the “Plant response rating, Wheat” value (wheat [4]; [9]) was 10 and the “Plant response rating, Wheat” value (wheat [4]; [10]) was 50. The “Plant response rating, Wheat” value (wheat [4]; [11]) was 0, the “Wheat plant response rating” value (wheat [4]; [12]) was 85 and the “Plant response rating, Wheat” value (wheat [5]; Postemergence, 125 g ai/ha) was 50. The “Wheat plant response rating” value (wheat [5]; [13]) was 60, the “Wheat plant response rating” value (wheat [5]; [14]) was 60 and the “Plant response rating, Wheat” value (wheat [5]; Preemergence, 500 g ai/ha) was 90. For the same molecule, the “Surinam Grass plant response rating” value (Surinam grass; [6]) was 80, the “Surinam Grass plant response rating” value (Surinam grass; [7]) was 100 and the “Plant response rating (0 to 100), Surinam Grass” value (Surinam grass; Postemergence, 31 g ai/ha) was 0. For the same molecule, the “Plant response rating (0 to 100), Surinam Grass” value (Surinam grass; Postemergence, 62 g ai/ha) was 0, the “Plant response rating, Surinam Grass” value (Surinam grass; [9]) was 0 and the “Plant response rating, Surinam Grass” value (Surinam grass; [10]) was 60. For the same molecule, the “Plant response rating, Surinam Grass” value (Surinam grass; [11]) was 50, the “Surinam Grass plant response rating” value (Surinam grass; [12]) was 100 and the “Cocklebur plant response rating” value (cocklebur; [6]) was 0. The “Cocklebur plant response rating” value (cocklebur; [7]) was 0, the “Plant response rating (0 to 100), Cocklebur” value (cocklebur; Postemergence, 31 g ai/ha) was 0 and the “Plant response rating, Cocklebur” value (cocklebur; [8]) was 0. The “Plant response rating, Cocklebur” value (cocklebur; [9]) was 0, the “Plant response rating, Cocklebur” value (cocklebur; [10]) was 0 and the “Plant response rating, Cocklebur” value (cocklebur; [11]) was 0. For the same molecule, the “Cocklebur plant response rating” value (cocklebur; [12]) was 0, the “Kochia plant response rating” value (kochia; [6]) was 0 and the “Kochia plant response rating” value (kochia; [7]) was 100. For the same molecule, the “Plant response rating (0 to 100), Kochia” value (kochia; Postemergence, 31 g ai/ha) was 0, the “Plant response rating, Kochia” value (kochia; [8]) was 0 and the “Plant response rating, Kochia” value (kochia; [9]) was 0. The “Plant response rating, Kochia” value (kochia; [10]) was 0, the “Plant response rating, Kochia” value (kochia; [11]) was 0 and the “Kochia plant response rating” value (kochia; [12]) was 100. The “Blackgrass plant response rating” value (blackgrass; [6]) was 50, the “Blackgrass plant response rating” value (blackgrass; [7]) was 100 and the “Plant response rating (0 to 100), Blackgrass” value (blackgrass; Postemergence, 31 g ai/ha) was 0. For the same molecule, the “Plant response rating, Blackgrass” value (blackgrass; [8]) was 20, the “Plant response rating, Blackgrass” value (blackgrass; [9]) was 40 and the “Plant response rating, Blackgrass” value (blackgrass; [10]) was 70. The “Plant response rating, Blackgrass” value (blackgrass; [11]) was 50, the “Blackgrass plant response rating” value (blackgrass; [12]) was 100 and the “Ragweed plant response rating” value (common ragweed; [6]) was 5. For the same molecule, the “Ragweed plant response rating” value (common ragweed; [7]) was 5, the “Plant response rating (0 to 100), Ragweed” value (common ragweed; Postemergence, 31 g ai/ha) was 0 and the “Plant response rating (0 to 100), Ragweed” value (common ragweed; Postemergence, 62 g ai/ha) was 0. For the same molecule, the “Plant response rating, Ragweed” value (common ragweed; [9]) was 0, the “Plant response rating, Ragweed” value (common ragweed; [10]) was 0 and the “Plant response rating, Ragweed” value (common ragweed; [11]) was 0. For the same molecule, the “Ragweed plant response rating” value (common ragweed; [12]) was 50.
